In the test the target is WDR5 (Homo sapiens, UniProt P61964). Put plainly: Competition-based fluorescence polarization anisotropy assay. The note with it: binding to WDR5; displacement of FITC-labeled small molecule probe (analogous to Example J2 or HCH-25) or peptide probe FITC-AHx-SEEEIDVVSV; pH 6.0; Ki converted from IC50. Here is the method:
Compounds of the present invention were assessed for their ability to bind to WDr5 using a competition-based fluorescence polarization anisotropy assay, similar to the method previously described. […] Fluorescence polarization measurements were performed in 384-well plates (Greiner Bio One) using a Cytation 3 plate reader (BioTek). Fluorescein isothiocyanate (FITC)-labeled peptide probe ([…]) was purchased from GenScript USA Inc and used without further purification. […] The assay buffer contained 200 mM phosphate, 300 mM NaCl, and 0.5 mM TCEP and 0.1% Chaps at pH 6.0. […] This was converted into a binding dissociation constant (Ki value) according to the formula: […] Data shown in the table below represents a K; determined from this method for each Example, using either a fluorescently labeled small molecule probe analogous to Example J2 or Example HCH-25, or the peptide probe described above, in the assay.

With `COCCNC(=O)c1cc(C2CC2)cc(NS(=O)(=O)c2cc(Br)cc(F)c2O)c1O` [Example J99, 3-((5-Bromo-3-fluoro-2-hydroxyphenyl)sulfonamido)-5-cyclopropyl-2-hydroxy-N-(2-methoxyethyl)benzamide], the Ki was determined as 3720 nM.

In turn, `O=C(NCCO)c1cc(OC(F)(F)F)cc(NS(=O)(=O)c2cc(Br)ccc2O)c1O` [HCH-26, 3-((5-Bromo-2-hydroxyphenyl)sulfonamido)-2-hydroxy-N-(2-hydroxyethyl)-5-(trifluoromethoxy)benzamide] showed a Ki of 250 nM.

Compound `CCc1cc(Br)cc(S(=O)(=O)Nc2cc(OC(F)(F)F)cc(C(=O)O)c2O)c1O` [HCH-14, 3-((5-Bromo-3-ethyl-2-hydroxyphenyl)sulfonamido)-2-hydroxy-5-(trifluoromethoxy)benzoic acid] returned a Ki of 130 nM.

On to `COc1ccc(Br)cc1S(=O)(=O)Nc1cc(Cl)cc(C(=O)NCCN)c1O` [Example J61, N-(2-Aminoethyl)-3-((5-bromo-2-methoxyphenyl)sulfonamido)-5-chloro-2-hydroxybenzamide], for which the affinity corresponds to a Ki of 2680 nM.

In the case of `O=C(NC1COC1)c1cc(OC(F)(F)F)cc(NS(=O)(=O)c2cc(Br)cc(Cl)c2O)c1O` [HCH-54, 3-((5-Bromo-3-chloro-2-hydroxyphenyl)sulfonamido)-2-hydroxy-N-(oxetan-3-yl)-5-(trifluoromethoxy)benzamide], affinity was put at a Ki of 140 nM.

For `O=C(NCCO)c1c(O)c(NS(=O)(=O)c2cc(Br)ccc2O)cc(C2CC2)c1F` [Example J126, 3-((5-Bromo-2-hydroxyphenyl)sulfonamido)-5-cyclopropyl-6-fluoro-2-hydroxy-N-(2-hydroxyethyl)benzamide], the Ki is 770 nM.

Take `CCN(CC)CCSc1cc(Cl)cc(NS(=O)(=O)c2cc(Br)cc(Cl)c2O)c1` [Example S34, 5-Bromo-3-chloro-N-(3-chloro-5-((2-(diethylamino)ethyl)thio)phenyl)-2-hydroxybenzenesulfonamide]: the Ki stood at 510 nM.

The compound `CNC(=O)c1c(O)c(NS(=O)(=O)c2cc(Br)cc(F)c2O)cc(C2CC2)c1F` [Example J150, 3-((5-Bromo-3-fluoro-2-hydroxyphenyl)sulfonamido)-5-cyclopropyl-6-fluoro-2-hydroxy-N-methylbenzamide] showed a Ki of 920 nM.

As for `O=C1CCCN1c1cc(Cl)cc(NS(=O)(=O)c2cc(Br)cc(Cl)c2O)c1` [NE13, 5-Bromo-3-chloro-N-(3-chloro-5-(2-oxopyrrolidin-1-yl)phenyl)-2-hydroxybenzenesulfonamide], the Ki was 1420 nM.

`CC(C)CNc1ccc(Br)cc1S(=O)(=O)Nc1cc(C2CC2)cc(C(=O)O)c1O` [Example J74, 3-((5-Bromo-2-(isobutylamino)phenyl)sulfonamido)-5-cyclopropyl-2-hydroxybenzoic acid] came in with a Ki of 3930 nM.

`COc1ccc(Br)cc1S(=O)(=O)Nc1cc(Cl)cc(C(N)=O)c1O` [Example J43, 3-((5-Bromo-2-methoxyphenyl)sulfonamido)-5-chloro-2-hydroxybenzamide] gave a Ki of 1150 nM.

As to `NC(=O)c1cc(OC(F)(F)F)cc(NS(=O)(=O)c2cc(Br)cc(CCCO)c2O)c1O` [HCH-4, 3-((5-Bromo-2-hydroxy-3-(3-hydroxypropyl)phenyl)sulfonamido)-2-hydroxy-5-(trifluoromethoxy)benzamide], the Ki amounted to 580 nM.

The compound `CCC(O)CNC(=O)c1cc(OC(F)(F)F)cc(NS(=O)(=O)c2cc(Br)cc(F)c2O)c1O` (stereo not drawn) [HCH-39, 3-((5-Bromo-3-fluoro-2-hydroxyphenyl)sulfonamido)-2-hydroxy-N-(2-hydroxybutyl)-5-(trifluoromethoxy)benzamide] gave a Ki of 320 nM.

`COC[C@H]1CCCN1C(=O)c1cc(Cl)cc(NS(=O)(=O)c2cc(Br)ccc2O)c1O` [Example J28, (R)-5-Bromo-N-(5-chloro-2-hydroxy-3-(2-(methoxymethyl)pyrrolidine-1-carbonyl)phenyl)-2-hydroxybenzenesulfonamide]: the Ki stood at 8290 nM.

In turn, `Cc1c(C2CC2)cc(NS(=O)(=O)c2cc(Br)ccc2O)c(O)c1C(=O)O` [Example J185, 3-((5-Bromo-2-hydroxyphenyl)sulfonamido)-5-cyclopropyl-2-hydroxy-6-methylbenzoic acid] showed a Ki of 580 nM.

Regarding `CNC(=O)c1cc(C2(C#N)CCC2)cc(NS(=O)(=O)c2cc(Cl)cc(Cl)c2O)c1O` [Example J216, 5-(1-Cyanocyclobutyl)-3-((3,5-dichloro-2-hydroxyphenyl)sulfonamido)-2-hydroxy-N-methylbenzamide], the Ki came out at 170 nM.

Consider `COC1CCN(C(=O)c2cc(OC(F)(F)F)cc(NS(=O)(=O)c3cc(Br)ccc3O)c2O)C1` (stereo not drawn) [Example J174, 5-Bromo-2-hydroxy-N-(2-hydroxy-3-(3-methoxypyrrolidine-1-carbonyl)-5-(trifluoromethoxy)phenyl)benzenesulfonamide], for which affinity was put at a Ki of 4690 nM.

For the compound `O=C(NC1CCOC1)c1cc(NS(=O)(=O)c2cc(Br)ccc2O)cc(C2CC2)c1F` (stereo not drawn) [Example J139, 5-((5-Bromo-2-hydroxyphenyl)sulfonamido)-3-cyclopropyl-2-fluoro-N-(tetrahydrofuran-3-yl)benzamide], the Ki came out at 12200 nM.

As to `O=C(NC[C@H]1CCCO1)c1cc(Cl)cc(NS(=O)(=O)c2cc(Br)ccc2O)c1O` [Example J26, (R)-3-((5-Bromo-2-hydroxyphenyl)sulfonamido)-5-chloro-2-hydroxy-N-((tetrahydrofuran-2-yl)methyl)benzamide], the Ki worked out at 740 nM.

On to `NC(=O)[C@H](CO)NC(=O)c1cc(OC(F)(F)F)cc(NS(=O)(=O)c2cc(Br)ccc2O)c1O` [HCH-47, (S)—N-(1-Amino-3-hydroxy-1-oxopropan-2-yl)-3-((5-bromo-2-hydroxyphenyl)sulfonamido)-2-hydroxy-5-(trifluoromethoxy)benzamide], for which the Ki was determined as 260 nM.

For the compound `COc1ccc(Br)cc1S(=O)(=O)Nc1cc(Cl)cc(C(=O)N2CC(S(C)(=O)=O)C2)c1O` [Example J64, 5-Bromo-N-(5-chloro-2-hydroxy-3-(3-(methylsulfonyl)azetidine-1-carbonyl)phenyl)-2-methoxybenzenesulfonamide], the Ki came to 4150 nM.

Consider `CS(=O)(=O)c1cc(Br)cc(NS(=O)(=O)c2cc(Br)cc(OC(F)(F)F)c2O)c1` [Example S3, 5-Bromo-N-(3-bromo-5-(methylsulfonyl)phenyl)-2-hydroxy-3-(trifluoromethoxy)benzenesulfonamide], for which affinity was put at a Ki of 500 nM.

Regarding `O=C(NC1CC(F)(F)C1)c1cc(OC(F)(F)F)cc(NS(=O)(=O)c2cc(Br)ccc2O)c1O` [HCH-55, 3-((5-Bromo-2-hydroxyphenyl)sulfonamido)-N-(3,3-difluorocyclobutyl)-2-hydroxy-5-(trifluoromethoxy)benzamide], the Ki worked out at 350 nM.

`O=C(NCCN1CCOCC1)c1cc(NS(=O)(=O)c2cc(Br)cc(Cl)c2O)cc(C2CC2)c1F` [Example J153, 5-((5-Bromo-3-chloro-2-hydroxyphenyl)sulfonamido)-3-cyclopropyl-2-fluoro-N-(2-morpholinoethyl)benzamide] gave a Ki of 440 nM.

As to `O=C(NC1COC1)c1c(O)c(NS(=O)(=O)c2cc(Br)cc(Cl)c2O)cc(C2CC2)c1F` [Example J149, 3-((5-Bromo-3-chloro-2-hydroxyphenyl)sulfonamido)-5-cyclopropyl-6-fluoro-2-hydroxy-N-(oxetan-3-yl)benzamide], the affinity, expressed as Ki, was 710 nM.

`O=C(NCCN1CCOCC1)c1cc(NS(=O)(=O)c2cc(Br)ccc2O)cc(C2CC2)c1F` [Example J137, 5-((5-Bromo-2-hydroxyphenyl)sulfonamido)-3-cyclopropyl-2-fluoro-N-(2-morpholinoethyl)benzamide] showed a Ki of 2980 nM.

`CNC(=O)c1cc(F)cc(NS(=O)(=O)c2cc(Br)ccc2O)c1O` [Example J109, 3-((5-Bromo-2-hydroxyphenyl)sulfonamido)-5-fluoro-2-hydroxy-N-methylbenzamide] displayed a Ki of 3470 nM.

Consider `O=C(NCC1CCCO1)c1cc(OC(F)(F)F)cc(NS(=O)(=O)c2cc(Br)ccc2O)c1O` (stereo not drawn) [Example J165, 3-((5-Bromo-2-hydroxyphenyl)sulfonamido)-2-hydroxy-N-((tetrahydrofuran-2-yl)methyl)-5-(trifluoromethoxy)benzamide], for which affinity was put at a Ki of 420 nM.

With `CN1CCN(C(=O)c2cc(C3CC3)cc(NS(=O)(=O)c3cc(Br)ccc3O)c2O)CC1` [Example J92, 5-Bromo-N-(5-cyclopropyl-2-hydroxy-3-(4-methylpiperazine-1-carbonyl)phenyl)-2-hydroxybenzenesulfonamide], the Ki is 4440 nM.

With `COc1ccc(Br)cc1S(=O)(=O)Nc1cc(Cl)cc(C(=O)O)c1O` [Example J2, 3-((5-Bromo-2-methoxyphenyl)sulfonamido)-5-chloro-2-hydroxybenzoic acid], the Ki came to 180 nM.

Compound `CC(C)S(=O)(=O)c1cc(Cl)cc(NS(=O)(=O)c2cc(Br)cc(Cl)c2O)c1O` [Example S23.1, 5-Bromo-3-chloro-N-(5-chloro-2-hydroxy-3-(isopropylsulfonyl)phenyl)-2-hydroxybenzenesulfonamide] gave a Ki of 130 nM.

`O=C(O)c1cc(C2CC2)cc(NS(=O)(=O)c2cc(Br)ccc2NC2CC2)c1O` [Example J73, 3-((5-Bromo-2-(cyclopropylamino)phenyl)sulfonamido)-5-cyclopropyl-2-hydroxybenzoic acid] had a Ki of 5980 nM.

`O=C(O)c1cc(C2CC2)cc(NS(=O)(=O)c2cc(Br)ccc2NCC2CC2)c1O` [Example J79, 3-((5-Bromo-2-((cyclopropylmethyl)amino)phenyl)sulfonamido)-5-cyclopropyl-2-hydroxybenzoic acid] had a Ki of 5270 nM.

Usually Ki stands for the equilibrium dissociation constant of an inhibitor or competing ligand from its target.

The values above are taken from patent US12398097B2, “WDR5-MYC inhibitors” (Vanderbilt University, priority 2019, dated 2025).
